From PMC6062912, “The Evolutionary Conserved γ-Core Motif Influences the Anti-Candida Activity of the Penicillium chrysogenum Antifungal Protein PAF” (Frontiers in Microbiology, 2018)
Values after ≈ are worked out from the molar mass of the structure shown. Residues, ends and D or L forms follow the SMILES beside them.

Key:
Assay type in all cases: cell-based, Candida albicans
C. albicans biofilms = assay: Anti-biofilm activity, FDA fluorescence; conditions: AMP 0–40 μM for 24 h at 30°C; for concentration inhibiting cell metabolism in biofilm (FDA fluorescence): 24-h-old biofilms; for concentration with anti-biofilm (inhibitory) activity, extinction of FDA fluorescence: 1 h old (young) biofilms
Procedure: The antifungal activity against C. albicans biofilms was determined in 96-well microtiter plates (Nunclon Delta, Thermo Fisher Scientific). Cells (10^5) in 100 μL 0.05× PDB were distributed per well and plates were incubated at 37°C for up to 24 h to allow biofilm formation. After cell adherence, the microtiter plates were washed once with 0.05× PDB and the test substances were added in increasing concentrations in 100 μL 0.05× PDB per well. H2O2 served as a control for cell killing. The plates were further incubated at 30°C for 24 h. The wells were washed once with 0.05× PDB and 100 μL of FDA solution (40 μg mL^-1 in 0.05× PDB) was added to the wells. Wells containing only FDA solution (40 μg mL^-1 in 0.05× PDB) were used as blank background control. The plates were incubated for 1 h at 37°C in the dark before the fluorescence signal intensity was measured in a multi-mode microplate reader (FLUOstar Omega, BMG Labtech) with excitation and emission wavelengths of 485 and 520 nm. All experiments were prepared at least in duplicates and repeated at least twice.
Next, we analyzed the potential of the AMPs to inhibit C. albicans biofilm formation. Low susceptibility of biofilms to antifungal agents is often a limiting factor in anti-Candida treatment. To this end, C. albicans cells were distributed in 96-well microtiter plates, allowed to settle down, and to develop biofilms for 1 and 24 h. Then, planktonic cells were washed off and AMPs were added to the biofilms for another 24 h in a concentration range of 0–40 μM. The biofilms were then quantified by adding FDA to the wells. Metabolically active cells convert non-fluorescent FDA into highly fluorescent fluorescein by intracellular enzymatic activity ([Peeters et al., 2008]). The resulting fluorescence signal intensity from AMP-treated biofilms was measured and compared to untreated conditions. […] Twenty-four-hour-old biofilms, however, were resistant against PAF, PAF^var, and PAF^opt in the investigated concentration range (data not shown).

C. albicans [1] = assay: Cell size reduction (FSC) by flow cytometry; conditions: 2× MIC, mean ± SD
Procedure: To analyze changes in cell size and to assess kinetics of cell death of C. albicans upon antifungal treatment flow cytometry was applied. For both experiments, 10^4 cells mL^-1 was incubated in 0.05× PDB with the desired AMP concentration for different time points. The incubation was performed in 1.5 mL reaction tubes at 30°C under continuous shaking at 800 rpm in a Thermomixer Comfort (Eppendorf). After incubation, the cells were centrifuged at 4°C with 3,000 ×g for 3 min. For cell size determination, the supernatant was removed and the cells were resuspended and fixed in PBS containing 3.7% (v/v) formaldehyde before changes in cell size were measured by plotting SSC against FSC. C. albicans that were incubated at 95°C for 120 min served as controls. Microscopic control-images were taken with a fluorescence microscope (Axioplan, Zeiss), equipped with a camera (Axiocam 503 mono, Zeiss) and excitation/emission filters (365/420 nm for blue fluorescence and 546/590 or 565/620 nm for red fluorescence, Zeiss). Image acquisition was performed with ZEN 2 microscope software (Zeiss, blue edition) and the cell area was measured with ImageJ 1.52d software ([Schindelin et al., 2012]).
Cell shrinkage of C. albicans is a sign for cell death when exposed to AMPs ([Lee et al., 2017]). We therefore analyzed the changes in size of AMP-treated C. albicans cells by recording the FSC with flow cytometry. To this end, C. albicans cells were analyzed after 10 and 30 min of exposure to 1× MIC and 2× MIC of AMPs (Figure 5). Heat-killed and untreated C. albicans cells served as positive and negative controls, respectively (Supplementary Figure S8). […] Pγ^var and Pγ^opt caused a very prominent decrease in the FSC value compared to the untreated cell population when applied at 2× MIC. Pγ^var and Pγ^opt reduced the average cell size after a 10-min treatment by 28 ± 13 (P = 0.022) and 18 ± 10% (P = 0.041), respectively, and after 30 min the cell size was reduced by 48 ± 8 (P < 0.001) and 37 ± 12% (P = 0.007), respectively.

C. albicans [2] = conditions: 24 h
Procedure: Fungal strains used in this study are listed in Supplementary Table S1 and composition of growth media is given in Supplementary Table S2. All P. chrysogenum shaking cultures were inoculated with 2 × 10^8 conidia, in 200 mL defined minimal medium (PcMM) for protein expression or complete medium (CM) before transformation, and grown at 25°C as described ([Sonderegger et al., 2016]). For conidial suspension generation from surface cultures, P. chrysogenum was grown on PcMM agar at 25°C. C. albicans was used as PAF-sensitive model organism and was cultivated on yeast extract peptone dextrose (YPD) agar at 37°C. For growth inhibition and susceptibility assays, C. albicans was grown in 20-fold diluted potato dextrose broth (PDB, Sigma-Aldrich) at 30°C, pH 5.5 ([Huber et al., 2018]).
The MIC of all protein and peptide variants was determined on C. albicans with broth microdilution assays in 96-well microtiter plates (Nunclon Delta, Thermo Fisher Scientific). From a fresh C. albicans overnight culture on YPD agar, cells were harvested with an inoculation loop and suspended in 0.05× PDB (Sigma-Aldrich) ([Arendrup et al., 2016]). The cell number was determined with a counting chamber (Bürker) and the cell number was adjusted to 10^4 mL^-1. In each well, 10^3 cells were incubated with increasing concentrations of antifungal proteins or peptides in a final volume of 200 μL 0.05× PDB. The plates were incubated for 24 h at 30°C before the growth was determined by measuring the optical density (OD620nm) with a multi-mode microplate reader (FLUOstar Omega, BMG Labtech). The MIC was defined as the protein concentration that inhibited growth by ≥90% compared to the untreated control, which was referred as 100% growth.

CC(=O)N[C@@H](CCCCN)C(=O)N[C@@H](Cc1ccc(O)cc1)C(=O)N[C@H](C(=O)NCC(=O)N[C@@H](CCCCN)C(=O)N[C@@H](CS)C(=O)N[C@@H](CCCCN)C(=O)N[C@H](C(=O)N[C@@H](CCCCN)C(=O)N[C@@H](CCCCN)C(=O)N[C@@H](CC(N)=O)C(=O)N[C@@H](CCCCN)C(=O)N[C@@H](CS)C(=O)N[C@@H](CCCCN)C(N)=O)[C@@H](C)O)[C@@H](C)O [Pγ^opt] (Ac-KYTGKCKTKKNKCK-NH2)
concentration inhibiting cell metabolism in biofilm (FDA fluorescence) (C. albicans biofilms): 10 µM
concentration with anti-biofilm (inhibitory) activity, extinction of FDA fluorescence (C. albicans biofilms): 10 µM
cell size reduction (change in FSC vs untreated cells) (C. albicans [1]; 10 min): 18 ± 10%
cell size reduction (change in FSC vs untreated cells) (C. albicans [1]; 30 min): 37 ± 12%

CC(=O)N[C@@H](CCCCN)C(=O)N[C@@H](Cc1ccc(O)cc1)C(=O)N[C@H](C(=O)NCC(=O)N[C@@H](CCCCN)C(=O)N[C@@H](CS)C(=O)N[C@@H](Cc1ccc(O)cc1)C(=O)N[C@@H](CCCCN)C(=O)N[C@@H](CCCCN)C(=O)N[C@@H](CCCCN)C(=O)N[C@@H](CC(N)=O)C(=O)N[C@@H](CCC(=O)O)C(=O)N[C@@H](CS)C(=O)N[C@@H](CCCCN)C(N)=O)[C@@H](C)O [Pγ^var] (Ac-KYTGKCYKKKNECK-NH2)
concentration inhibiting cell metabolism in biofilm (FDA fluorescence) (C. albicans biofilms): 20 µM
concentration with anti-biofilm (inhibitory) activity, extinction of FDA fluorescence (C. albicans biofilms): 10 µM
cell size reduction (change in FSC vs untreated cells) (C. albicans [1]; 10 min): 28 ± 13%
cell size reduction (change in FSC vs untreated cells) (C. albicans [1]; 30 min): 48 ± 8%
MIC (C. albicans [2]): 2.5 µM (≈ 4.41 µg/mL)
